Data set [1] concerns Plasma protein. Nature of the data set: Biological Test Example 5: fraction unbound in human plasma (equilibrium dialysis). The format is in vitro ADME.
For data set [2], the target named is human recombinant cytochrome P450 3A4 (Homo sapiens, UniProt P08684).
For data set [3], the target named is human recombinant cytochrome P450 2C9 (Homo sapiens, UniProt P11712). The data set is described as follows: Biological Test Example 7: CYP2C9 inhibition ([O-methyl-14C]-Naproxen O-demethylation).
Chain of human recombinant cytochrome P450 2C9 (P11712 whole entry): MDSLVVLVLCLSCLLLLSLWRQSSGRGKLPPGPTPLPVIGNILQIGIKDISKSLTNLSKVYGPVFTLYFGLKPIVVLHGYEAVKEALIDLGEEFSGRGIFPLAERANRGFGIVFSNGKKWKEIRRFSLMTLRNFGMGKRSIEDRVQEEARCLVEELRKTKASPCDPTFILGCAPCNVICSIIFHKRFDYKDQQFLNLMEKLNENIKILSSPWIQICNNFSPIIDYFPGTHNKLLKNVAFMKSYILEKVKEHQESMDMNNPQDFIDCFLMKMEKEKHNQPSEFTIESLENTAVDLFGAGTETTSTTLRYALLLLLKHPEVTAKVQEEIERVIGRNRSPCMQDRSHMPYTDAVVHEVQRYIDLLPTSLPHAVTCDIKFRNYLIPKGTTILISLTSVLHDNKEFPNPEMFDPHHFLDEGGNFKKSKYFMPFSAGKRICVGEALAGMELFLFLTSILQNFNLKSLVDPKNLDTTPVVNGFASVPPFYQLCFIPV
In data set [4] the target is human recombinant cytochrome P450 2C19 (Homo sapiens, UniProt P33261). Nature of the data set: Biological Test Example 8: CYP2C19 inhibition ([N-methyl-14C]-Diazepam N-demethylation).
Chain of human recombinant cytochrome P450 2C19 (P33261 whole entry): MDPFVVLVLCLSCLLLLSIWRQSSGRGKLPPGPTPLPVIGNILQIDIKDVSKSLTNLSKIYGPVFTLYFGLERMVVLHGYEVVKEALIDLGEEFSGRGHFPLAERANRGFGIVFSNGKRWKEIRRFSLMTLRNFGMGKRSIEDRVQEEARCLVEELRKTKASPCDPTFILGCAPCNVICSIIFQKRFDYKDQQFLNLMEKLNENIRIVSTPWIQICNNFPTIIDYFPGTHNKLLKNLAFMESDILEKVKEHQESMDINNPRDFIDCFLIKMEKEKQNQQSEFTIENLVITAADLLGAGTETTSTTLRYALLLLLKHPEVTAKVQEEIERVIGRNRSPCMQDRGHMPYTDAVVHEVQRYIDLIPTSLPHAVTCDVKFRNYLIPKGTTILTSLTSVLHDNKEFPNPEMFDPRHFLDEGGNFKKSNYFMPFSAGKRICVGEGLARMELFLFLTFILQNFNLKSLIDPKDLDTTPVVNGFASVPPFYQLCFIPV

The structures appear in SMILES notation. pIC50: −log10 of the molar value.

Chain of human recombinant cytochrome P450 3A4 (P08684 whole entry): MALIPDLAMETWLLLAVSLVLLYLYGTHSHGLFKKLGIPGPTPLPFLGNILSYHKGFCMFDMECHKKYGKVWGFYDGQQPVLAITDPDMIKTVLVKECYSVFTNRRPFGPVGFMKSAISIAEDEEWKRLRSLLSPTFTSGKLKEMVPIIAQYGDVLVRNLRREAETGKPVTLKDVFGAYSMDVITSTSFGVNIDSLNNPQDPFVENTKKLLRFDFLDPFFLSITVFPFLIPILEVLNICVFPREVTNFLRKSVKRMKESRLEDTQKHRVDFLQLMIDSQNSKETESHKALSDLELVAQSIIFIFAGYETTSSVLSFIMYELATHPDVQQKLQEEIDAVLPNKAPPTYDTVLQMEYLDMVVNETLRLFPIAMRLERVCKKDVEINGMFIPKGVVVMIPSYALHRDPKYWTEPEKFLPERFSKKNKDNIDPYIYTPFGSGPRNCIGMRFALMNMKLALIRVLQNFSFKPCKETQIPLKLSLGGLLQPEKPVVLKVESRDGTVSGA

Take `C[C@@H](c1ccc(-c2ccc(=O)n(C3CC3)c2)cc1)N1CC[C@](CC(C)(C)O)(c2ccccc2)OC1=O` [Example 3, (S)-3-((S)-1-(4-(1-cyclopropyl-6-oxo-1,6-dihydropyridin-3-yl)phenyl)ethyl)-6-(2-hydroxy-2-methylpropyl)-6-phenyl-1,3-oxazinan-2-one]: the “Biological Test Example 5 (%)” value in data set [1] (Comparator Compounds) stood at 0.3%. The pIC50 is 4.36 in data set [2] and 4.42 in data set [3].

As for `C[C@@H](c1ccc(-c2ccc(=O)n(C(F)F)c2)cc1)N1CC[C@](CC(C)(C)O)(c2ccccc2)OC1=O` [Example 4, (S)-3-((S)-1-(4-(1-(difluoromethyl)-6-oxo-1,6-dihydropyridin-3-yl)phenyl)ethyl)-6-(2-hydroxy-2-methylpropyl)-6-phenyl-1,3-oxazinan-2-one], the pIC50 in data set [2] is 4.68; in data set [3], 4.77.

As to `C[C@@H](c1ccc(-c2ccn(C(F)F)c(=O)c2)cc1)N1CC[C@](CC(C)(C)O)(c2ccccc2)OC1=O` [Example 5, (S)-3-((S)-1-(4-(1-(difluoromethyl)-2-oxo-1,2-dihydropyridin-4-yl)phenyl)ethyl)-6-(2-hydroxy-2-methylpropyl)-6-phenyl-1,3-oxazinan-2-one], the pIC50 in data set [2] is 4.54.

As to `C[C@@H](c1ccc(-c2ccc(=O)n(C)c2)cc1)N1CC[C@](CC(C)(C)NS(C)(=O)=O)(c2ccccc2)OC1=O` [Example 11, N-(2-methyl-1-((S)-3-((S)-1-(4-(1-methyl-6-oxo-1,6-dihydropyridin-3-yl)phenyl)ethyl)-2-oxo-6-phenyl-1,3-oxazinan-6-yl)propan-2-yl)methanesulfonamide], the “Biological Test Example 5 (%)” value in data set [1] (Comparator Compounds) came out at 0.7%.

For the compound `C[C@@H](c1ccc(-c2cc[nH]c(=O)c2)cc1)N1CC[C@](CC(C)(C)C#N)(c2ccccc2)OC1=O` [Example 14, 2,2-dimethyl-3-((R)-2-oxo-3-((S)-1-(4-(2-oxo-1,2-dihydropyridin-4-yl)phenyl)ethyl)-6-phenyl-1,3-oxazinan-6-yl)propanenitrile], the pIC50 is 4.60 in data set [2], 4.74 in data set [3] and 4.62 in data set [4].

In the case of `C[C@@H](c1ccc(-c2ccn(CCF)c(=O)c2)cc1)N1CC[C@](CC(C)(C)O)(c2ccccc2)OC1=O` [Example 25, (S)-3-((S)-1-(4-(1-(2-fluoroethyl)-2-oxo-1,2-dihydropyridin-4-yl)phenyl)ethyl)-6-(2-hydroxy-2-methylpropyl)-6-phenyl-1,3-oxazinan-2-one], the values for the pIC50 in data set [2] and in data set [3] were 4.48 and 4.52, respectively.

As for `C[C@@H](c1ccc(-c2ccc(=O)n(C)c2)cc1)N1CC[C@](CCCO)(c2ccccc2)OC1=O` [Example 30, (R)-6-(3-hydroxypropyl)-3-((S)-1-(4-(1-methyl-6-oxo-1,6-dihydropyridin-3-yl)phenyl)ethyl)-6-phenyl-1,3-oxazinan-2-one], in data set [1] (Examples), the “Biological Test Example 5 (%)” value stood at 13.9%. The pIC50 in data set [4] is 4.57.

On to `C[C@@H](c1ccc(-c2ccn(C)c(=O)c2)cc1)N1CC[C@](CC(C)(C)O)(c2ccccc2)OC1=O` [Example 48, (S)-6-(2-hydroxy-2-methylpropyl)-3-((S)-1-(4-(1-methyl-2-oxo-1,2-dihydropyridin-4-yl)phenyl)ethyl)-6-phenyl-1,3-oxazinan-2-one], for which the “Biological Test Example 5 (%)” value in data set [1] (Examples) turned out to be 8.7%.

For the compound `CC[C@@H](c1ccc(-c2ccc(=O)n(CC)c2)cc1)N1CC[C@](CC(C)(C)O)(c2ccccc2)OC1=O` [Example 52, (S)-3-((S)-1-(4-(1-ethyl-6-oxo-1,6-dihydropyridin-3-yl)phenyl)propyl)-6-(2-hydroxy-2-methylpropyl)-6-phenyl-1,3-oxazinan-2-one], the “Biological Test Example 5 (%)” value in data set [1] (Examples) was determined as 9.0%.

In the case of `CCn1cc(-c2ccc([C@H](C)N3CC[C@](CC(C)(C)O)(c4ccccc4)OC3=O)cc2)ccc1=O` [Example 53, (S)-3-((S)-1-(4-(1-ethyl-6-oxo-1,6-dihydropyridin-3-yl)phenyl)ethyl)-6-(2-hydroxy-2-methylpropyl)-6-phenyl-1,3-oxazinan-2-one], the “Biological Test Example 5 (%)” value in data set [1] (Examples) stood at 12.8%.

For the compound `CC[C@@H](c1ccc(-c2ccc(=O)n(C)c2)cc1)N1CC[C@](CC(C)(C)O)(c2ccccc2)OC1=O` [Example 54, (S)-6-(2-hydroxy-2-methylpropyl)-3-((S)-1-(4-(1-methyl-6-oxo-1,6-dihydropyridin-3-yl)phenyl)propyl)-6-phenyl-1,3-oxazinan-2-one], the “Biological Test Example 5 (%)” value in data set [1] (Examples) amounted to 9.1%. Further, the pIC50 in data set [4] is 4.74.

For the compound `CC[C@@H](c1ccc(-c2ccn(C)c(=O)c2)cc1)N1CC[C@](CC)(c2ccccc2)OC1=O` [Example 58, (R)-6-ethyl-3-((S)-1-(4-(1-methyl-2-oxo-1,2-dihydropyridin-4-yl)phenyl)propyl)-6-phenyl-1,3-oxazinan-2-one], the results for the negative logarithm of the IC50 (pIC50) in data set [2], in data set [3] and in data set [4] were 5.10, 5.52 and 5.70, respectively.

Consider `CC(C)n1cc(-c2ccc([C@H](C)N3CC[C@](CC(C)(C)O)(c4ccccc4)OC3=O)cc2)ccc1=O` [Example 59, (S)-6-(2-hydroxy-2-methylpropyl)-3-((S)-1-(4-(1-isopropyl-6-oxo-1,6-dihydropyridin-3-yl)phenyl)ethyl)-6-phenyl-1,3-oxazinan-2-one], for which the pIC50 in data set [4] was 4.43.

With `Cc1cc(-c2ccc([C@H](C)N3CC[C@](CC(C)(C)O)(c4ccccc4)OC3=O)cc2)cn(C)c1=O` [Example 61, (S)-3-((S)-1-(4-(1,5-dimethyl-6-oxo-1,6-dihydropyridin-3-yl)phenyl)ethyl)-6-(2-hydroxy-2-methylpropyl)-6-phenyl-1,3-oxazinan-2-one], the pIC50 is 4.40 in data set [3] and 4.74 in data set [4].

For `CCn1cc(-c2ccc([C@H](C)N3CC[C@](CC(C)(C)O)(c4ccc(F)cc4)OC3=O)cc2)ccc1=O` [Example 62, (S)-3-((S)-1-(4-(1-ethyl-6-oxo-1,6-dihydropyridin-3-yl)phenyl)ethyl)-6-(4-fluorophenyl)-6-(2-hydroxy-2-methylpropyl)-1,3-oxazinan-2-one], the pIC50 in data set [2] is 4.32; in data set [4], 4.42.

Regarding `Cc1cc(-c2ccc([C@H](C)N3CC[C@](CC(C)(C)O)(c4ccccc4)OC3=O)cc2)cc(=O)n1C` [Example 64, (S)-3-((S)-1-(4-(1,6-dimethyl-2-oxo-1,2-dihydropyridin-4-yl)phenyl)ethyl)-6-(2-hydroxy-2-methylpropyl)-6-phenyl-1,3-oxazinan-2-one], the negative logarithm of the IC50 (pIC50) in data set [3] was 4.48; in data set [4], 4.77.

Consider `CCn1ccc(-c2ccc([C@H](C)N3CC[C@](CC(C)(C)O)(c4ccccc4)OC3=O)cc2)cc1=O` [Example 65, (S)-3-((S)-1-(4-(1-ethyl-2-oxo-1,2-dihydropyridin-4-yl)phenyl)ethyl)-6-(2-hydroxy-2-methylpropyl)-6-phenyl-1,3-oxazinan-2-one], for which the results for the pIC50 in data set [2], in data set [3] and in data set [4] were less than 4.30, less than 4.30 and 4.60, respectively.

As to `C[C@@H](c1ccc(-c2ccc(=O)n(CC(F)(F)F)c2)cc1)N1CC[C@](CC(C)(C)O)(c2ccccc2)OC1=O` [Example 67, (S)-6-(2-hydroxy-2-methylpropyl)-3-((S)-1-(4-(6-oxo-1-(2,2,2-trifluoroethyl)-1,6-dihydropyridin-3-yl)phenyl)ethyl)-6-phenyl-1,3-oxazinan-2-one], the values for the pIC50 in data set [2], in data set [3] and in data set [4] were 4.55, 4.39 and 4.47, respectively.

Consider `CC(C)n1ccc(-c2ccc([C@H](C)N3CC[C@](CC(C)(C)O)(c4ccccc4)OC3=O)cc2)cc1=O` [Example 68, (S)-6-(2-hydroxy-2-methylpropyl)-3-((S)-1-(4-(1-isopropyl-2-oxo-1,2-dihydropyridin-4-yl)phenyl)ethyl)-6-phenyl-1,3-oxazinan-2-one], for which the pIC50 in data set [2] is 4.37; in data set [3], 4.33; in data set [4], 4.55.

As to `C[C@@H](c1ccc(-c2ccc(=O)n(C)c2)cc1)N1CC[C@](CC(C)(C)C#N)(c2ccc(F)cc2)OC1=O` [Example 69, 3-((R)-6-(4-fluorophenyl)-3-((S)-1-(4-(1-methyl-6-oxo-1,6-dihydropyridin-3-yl)phenyl)ethyl)-2-oxo-1,3-oxazinan-6-yl)-2,2-dimethylpropanenitrile], the pIC50 in data set [2] is 4.64; in data set [3], 4.42.

Regarding `CCn1cc(-c2ccc([C@H](C)N3CC[C@](CC(C)(C)O)(c4ccccc4)OC3=O)cc2)cc(C)c1=O` [Example 70, (S)-3-((S)-1-(4-(1-ethyl-5-methyl-6-oxo-1,6-dihydropyridin-3-yl)phenyl)ethyl)-6-(2-hydroxy-2-methylpropyl)-6-phenyl-1,3-oxazinan-2-one], the negative logarithm of the IC50 (pIC50) in data set [2] is 4.55; in data set [4], 4.64.

Turning to `C[C@@H](c1ccc(-c2ccc(=O)[nH]c2)cc1)N1CC[C@](CC(C)(C)C#N)(c2ccccc2)OC1=O` [Example 71, 2,2-dimethyl-3-((R)-2-oxo-3-((S)-1-(4-(6-oxo-1,6-dihydropyridin-3-yl)phenyl)ethyl)-6-phenyl-1,3-oxazinan-6-yl)propanenitrile], the results for the pIC50 in data set [2], in data set [3] and in data set [4] were 5.22, 4.77 and 4.62, respectively.

Take `CCn1c(C)cc(-c2ccc([C@H](C)N3CC[C@](CC(C)(C)O)(c4ccccc4)OC3=O)cc2)cc1=O` [Example 72, (S)-3-((S)-1-(4-(1-ethyl-6-methyl-2-oxo-1,2-dihydropyridin-4-yl)phenyl)ethyl)-6-(2-hydroxy-2-methylpropyl)-6-phenyl-1,3-oxazinan-2-one]: the pIC50 is 4.39 in data set [2], 4.46 in data set [3] and 5.10 in data set [4].

Regarding `C[C@@H](c1ccc(-c2ccn(C3CC3)c(=O)c2)cc1)N1CC[C@](CC(C)(C)O)(c2ccccc2F)OC1=O` [Example 88, (S)-3-((S)-1-(4-(1-cyclopropyl-2-oxo-1,2-dihydropyridin-4-yl)phenyl)ethyl)-6-(2-fluorophenyl)-6-(2-hydroxy-2-methylpropyl)-1,3-oxazinan-2-one], the negative logarithm of the IC50 (pIC50) in data set [3] is 4.55.

These data come from EP2424865B1 (Boehringer Ingelheim International GmbH, priority 2009, dated 2010).
